In patent US20230114728A1 (Venatorx Pharmaceuticals, Inc., priority 2019, published 2023):
≈ marks a conversion by molar mass, not a printed value.

Legend:
E. coli K12 PBP3 = target: T1, E. coli K12 PBP3 (Escherichia coli, UniProt P0AD68); assay: biochemical; assay type: binding
T1 construct: made in house
Excerpt: Example I: Experimental Method for Penicillin-Binding Protein Binding Assays with Bocillin-FL Via Fluorescence Polarization
To determine the ability of boronic acid-based test PBP inhibitors to bind Penicillin Binding Proteins (PBPs), Bocillin-FL (fluorescently-labeled penicillin V; ThermoFisher Scientific) was used in a fluorescence polarization (FP) competition binding assay to assess inhibitor binding to PBP2, PBP3 or PBP4 from Escherichia coli (K12), PBP3 from Pseudomonas aeruginosa (PA01), PBP1a, PBP2 and PBP3 from Acinetobacter baumannii (ATCC 19606), and PBP2 from Neiserria gonorrheae (FA19). PBPs were cloned and purified as described previously (E. coli PBPs, King, D. T, et al., ACS Infectious Diseases 2015, 1, 175-184; P. aeruginosa PBP3, Han et. al., PNAS 2010, 107 (51), 22002-22007; A. baumannii PBPs, Penwell et. al., Antimicrob. Agents Chemother. 2015, 59 (3), 1680-1689; N. gonorrhoeae PBP2, Singh et. al., J Biol. Chem. 2019, 294 (38), 14020-14032). To establish assay conditions for competition binding, enzyme titration/saturation binding experiments were initially performed. Bocillin-FL was prepared at 0.2 μM in a buffer comprised of 50 mM Hepes (pH 8.0), 300 mM NaCl and 5% (v/v) glycerol for reactions with E. coli, P. aeruginosa and N. gonorrhoeae PBPs, and 25 mM Tris (pH 8.0), 200 mM NaCl and 10% (v/v) glycerol and 0.005% (v/v) Tween 20 for reactions with A. baumannii PBPs. Saturation binding was performed by mixing 40 μl of PBP solutions ranging in concentrations from 0-24 μM with 40 μl of the 0.2 μM Bocillin-FL solution, in individual wells of a black 384-well microplate. FP was measured immediately upon mixing (Excitation, 490 nm; Emission, 520 nm; g-factor, 0.96), using a Cytation3 (BioTek) microplate reader and measured continuously for up to 120 minutes. […] The competition binding assay (80 μl final volume) was validated using beta-lactams and PBPs at final concentrations of: 1.5 μM, E. coli PBP3; 0.75 μM, P. aeruginosa PBP3; 1 μM A. baumannii PBP1a; 2.5 μM A. baumannii PBP2; 0.2 μM A. baumannii PBP3; and […] N. gonorrhoeae PBP2. Bocillin-FL was at 0.1 μM (0.05 μM with A. baumannii PBP1a) and beta-lactam concentrations ranged from 0-1000 μM. […] Bocillin-FL was added and the FP immediately measured for up to 60 minutes (90 minutes for E. coli PBP2). […] The beta-lactam potency was reported as the concentration of beta-lactam required to reduce the amount of PBP bound-Bocillin-FL by 50% (EC50). […] Binding assays for boronic acid PBP inhibitors were performed in an identical fashion for the respective PBPs

P. aeruginosa PBP3 = target: T2, P. aeruginosa PBP3 (Pseudomonas aeruginosa, UniProt G3XD46); assay: Bocillin-FL fluorescence polarization competition binding assay, P. aeruginosa PBP3; conditions: fluorescence polarization competition binding assay using Bocillin-FL
T2 construct: made in house
T2 sequence (G3XD46 whole entry): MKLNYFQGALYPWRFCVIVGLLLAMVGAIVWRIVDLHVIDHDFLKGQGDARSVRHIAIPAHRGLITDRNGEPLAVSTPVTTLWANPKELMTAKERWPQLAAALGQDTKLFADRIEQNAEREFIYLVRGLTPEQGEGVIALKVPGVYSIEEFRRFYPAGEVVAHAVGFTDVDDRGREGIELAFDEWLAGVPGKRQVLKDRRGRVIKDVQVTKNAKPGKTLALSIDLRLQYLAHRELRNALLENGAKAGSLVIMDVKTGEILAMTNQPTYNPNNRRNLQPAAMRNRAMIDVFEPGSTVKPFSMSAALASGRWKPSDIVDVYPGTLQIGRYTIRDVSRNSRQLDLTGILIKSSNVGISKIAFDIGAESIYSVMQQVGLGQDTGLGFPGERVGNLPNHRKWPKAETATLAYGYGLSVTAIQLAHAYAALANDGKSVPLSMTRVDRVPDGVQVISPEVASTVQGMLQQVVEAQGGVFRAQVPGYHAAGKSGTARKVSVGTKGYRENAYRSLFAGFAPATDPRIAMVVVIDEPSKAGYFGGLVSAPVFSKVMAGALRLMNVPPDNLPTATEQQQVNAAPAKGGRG
Summary of the method: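 Inhibitor competition with Bocillin-FL for P. aeruginosa PBP3 was followed by fluorescence polarization on a Cytation3 (BioTek) reader, using g-factor 0.96, 490 nm excitation and 520 nm emission. The enzyme was at 0.75 μM and the probe at 0.1 μM in Hepes/NaCl/glycerol buffer, 80 μl per well. FP was recorded immediately after probe addition for up to 60 minutes. Potency was expressed as EC50, the concentration that reduces bound probe by 50%.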

[1] = tested on: K. pneumoniae SI-117 producing VIM-1; assay: Broth microdilution MIC in CAMHB; assay type: cell-based; conditions: Klebsiella pneumoniae, read-out: Minimum Inhibitory Concentration, K. pneumoniae SI-117
Description: (§1) Example III: In Vitro Antibacterial Assays
(§2) To determine the ability of test compounds to inhibit the growth of bacterial strains, classic cell based broth microdilution minimum inhibitory concentration (MIC) assays were employed. MIC assays are performed according to CLSI methods except where otherwise noted (CLSI, 2018 and CLSI, 2019). The reference type strain E. coli ATCC 25922; the wild-type parent strain E. coli AG100; the hyper-permeable E. coli 901C and E. coli D22; and the E. coli AG100A strain lacking the acrAB efflux pump encoding genes were used to determine the ability of the PBP inhibitors to penetrate the outer membrane of gram-negative bacteria and inhibit bacterial growth. […] The P. aeruginosa ATCC 27853 and A. baumannii ATCC 19606, along with the hyper-permeable P. aeruginosa ATCC 35151 and an engineered efflux pump-compromised strain of P. aeruginosa (ΔmexAB-oprM) were used to determine the ability of PBP inhibitors to penetrate the outer membrane of P. aeruginosa and A. baumannii and assess antibacterial activity against these important gram-negative organisms.
(§3) Briefly, cryo-preserved bacterial cultures of challenge strains are streaked for isolation on appropriate agar medium, in this case cation-adjusted Mueller Hinton agar. Following incubation to allow growth of the colonies, plates are sealed with parafilm and stored refrigerated for up to two weeks. For preparation of assay inoculum and to ensure low variability, at least 5 colonies are picked from the agar plates with an inoculating loop and aseptically transferred to a culture tube containing 3 mL of cation-adjusted Mueller Hinton broth (CAMHB). The broth culture is grown for 3-5 hours at 37° C. with shaking at 200 rpm. Meanwhile, 2-fold serial dilutions of test compounds are conducted in a 96-well plate with a final volume of 75 μL per well at 2-fold the final desired concentration. After the dilution plates are set up the growing cultures are then diluted in a cuvette containing CAMHB and the optical density is measured at 600 nm. The inoculum is diluted such that 75 μL of this culture in CAMHB results in a starting bacterial concentration of 2-8×10^5 CFU/mL when added to the dilution plates. The plates are incubated for 16-20 hours for Enterobacteriaceae and Pseudomonas and 20-24 hours for Acinetobacter at 37° C. The MIC values are read visually as the lowest concentration well with no bacterial growth.

P. aeruginosa ATCC 35151 = assay: Broth microdilution MIC in CAMHB; assay type: cell-based; conditions: Pseudomonas aeruginosa, ATCC35151; MHB; hyper-permeable strain; read-out: Minimum Inhibitory Concentration, P. aeruginosa ATCC 35151
Description: as §1, §2, §3

E. coli AG100 = assay: Broth microdilution MIC in CAMHB; assay type: cell-based; conditions: Escherichia coli; MHB; wild-type parent strain E. coli AG100; read-out: Minimum Inhibitory Concentration, E. coli AG100
Description: as §1, §2, §3

E. coli D22 = assay: Broth microdilution MIC in CAMHB; assay type: cell-based; conditions: Escherichia coli; MHB; hyper-permeable E. coli D22; read-out: Minimum Inhibitory Concentration, E. coli D22
Description: as §1, §2, §3

E. coli ATCC 25922 = assay: Broth microdilution MIC in CAMHB; assay type: cell-based; conditions: Escherichia coli, ATCC25922; MHB; E. coli ATCC 25922; read-out: Minimum Inhibitory Concentration, E. coli 25922
Description: as §1, §2, §3

P. aeruginosa ATCC 27853 = assay: Broth microdilution MIC in CAMHB; assay type: cell-based; conditions: Pseudomonas aeruginosa, ATCC27853; MHB; read-out: Minimum Inhibitory Concentration, P. aeruginosa ATCC 27853
Description: as §1, §2, §3

E. coli 901C = assay: Broth microdilution MIC in CAMHB; assay type: cell-based; conditions: Escherichia coli; MHB; hyper-permeable E. coli 901C; read-out: Minimum Inhibitory Concentration, E. coli 901C
Description: as §1, §2, §3

A. baumannii ATCC 19606 = assay: Broth microdilution MIC in CAMHB; assay type: cell-based; conditions: Acinetobacter baumannii, ATCC19606; MHB; read-out: Minimum Inhibitory Concentration, A. baumannii ATCC 19606
Description: as §1, §2, §3

[2] = tested on: K. pneumoniae 848844 producing SHV-11 and KPC-2; assay: Broth microdilution MIC in CAMHB; assay type: cell-based; conditions: Klebsiella pneumoniae, read-out: Minimum Inhibitory Concentration, K. pneumoniae 848844
Description: as §1, §2, §3

[3] = tested on: K. pneumoniae UMM producing SHV-5 and KPC-2; assay: Broth microdilution MIC in CAMHB; assay type: cell-based; conditions: Klebsiella pneumoniae, read-out: Minimum Inhibitory Concentration, K. pneumoniae UMM
Description: as §1, §2, §3

E. coli AG100A = assay: Broth microdilution MIC in CAMHB; assay type: cell-based; conditions: Escherichia coli, read-out: Minimum Inhibitory Concentration, E. coli AG100A
Description: as §1, §2, §3

[4] = tested on: P. aeruginosa (ΔmexAB-oprM); assay: Broth microdilution MIC in CAMHB; assay type: cell-based; conditions: Pseudomonas aeruginosa, read-out: Minimum Inhibitory Concentration, P. aeruginosa ΔmexAB-OprM
Description: as §1, §2, §3

T1 sequence (P0AD68 1-577): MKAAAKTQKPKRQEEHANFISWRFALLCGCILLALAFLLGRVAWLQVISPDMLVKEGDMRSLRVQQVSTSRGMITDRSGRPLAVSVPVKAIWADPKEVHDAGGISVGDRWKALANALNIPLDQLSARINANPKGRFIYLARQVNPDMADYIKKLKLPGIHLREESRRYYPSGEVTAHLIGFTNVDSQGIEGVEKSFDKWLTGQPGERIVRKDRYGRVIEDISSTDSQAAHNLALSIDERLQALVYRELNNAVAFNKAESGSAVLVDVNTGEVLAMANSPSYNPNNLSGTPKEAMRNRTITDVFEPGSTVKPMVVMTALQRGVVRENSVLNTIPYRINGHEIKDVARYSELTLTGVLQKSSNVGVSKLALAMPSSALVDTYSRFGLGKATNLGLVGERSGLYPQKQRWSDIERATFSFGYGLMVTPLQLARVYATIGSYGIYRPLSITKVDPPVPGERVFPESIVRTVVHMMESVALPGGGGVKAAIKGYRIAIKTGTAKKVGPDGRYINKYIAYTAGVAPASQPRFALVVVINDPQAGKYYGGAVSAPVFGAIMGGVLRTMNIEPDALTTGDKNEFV

Structure (SMILES) | EC50 (E. coli K12 PBP3) [µM] | P. aeruginosa PBP3 Potency (P. aeruginosa PBP3) | MIC [1] [mg/L] | MIC (P. aeruginosa ATCC 35151) [mg/L] | MIC (E. coli AG100) [mg/L] | MIC (E. coli D22) [mg/L] | MIC (E. coli ATCC 25922) [mg/L] | MIC (P. aeruginosa ATCC 27853) [mg/L] | MIC (E. coli 901C) [mg/L] | MIC (A. baumannii ATCC 19606) [mg/L] | MIC [2] [mg/L] | MIC [3] [mg/L] | MIC (E. coli AG100A) [mg/L] | MIC [4] [mg/L]
CCN1C[C@H](C)N(C(=O)NC(C(=O)N[C@H]2Cc3cccc(C(=O)O)c3OB2O)c2c(F)cc(O)cc2F)C(=O)C1=O (stereo partly drawn) [Example 232, (3R)-3-(2-(2,6-difluoro-4-hydroxyphenyl)-2-((S)-4-ethyl-6-methyl-2,3-dioxopiperazine-1-carboxamido)acetamido)-2-hydroxy-3,4-dihydro-2H-benzo[e][1,2]oxaborinine-8-carboxylic acid] | < 30 | D (D represents a potency <10 μM) | 2 to 4 (≈ 3.48 to 6.96 µM) | 2 to 4 (≈ 3.48 to 6.96 µM) | 32 to 64 (≈ 55.7 to 111 µM) | 32 to 64 (≈ 55.7 to 111 µM) | 8 to 16 (≈ 13.9 to 27.9 µM) | > 128 | 32 to 64 (≈ 55.7 to 111 µM) | > 128 | 8 to 16 (≈ 13.9 to 27.9 µM) | < 0.25 | 32 to 64 (≈ 55.7 to 111 µM) | 8 to 16 (≈ 13.9 to 27.9 µM)
C[C@H]1CN(CCF)C(=O)C(=O)N1C(=O)NC(C(=O)N[C@H]1Cc2cccc(C(=O)O)c2OB1O)c1c(F)cc(O)cc1F (stereo partly drawn) [Example 233, (3R)-3-(2-(2,6-difluoro-4-hydroxyphenyl)-2-((S)-4-(2-fluoroethyl)-6-methyl-2,3-dioxopiperazine-1-carboxamido)acetamido)-2-hydroxy-3,4-dihydro-2H-benzo[e][1,2]oxaborinine-8-carboxylic acid] | < 30 | D (D represents a potency <10 μM) | 2 to 4 (≈ 3.38 to 6.75 µM) | 8 to 16 (≈ 13.5 to 27 µM) | 32 to 64 (≈ 54 to 108 µM) | 32 to 64 (≈ 54 to 108 µM) | 8 to 16 (≈ 13.5 to 27 µM) | > 128 | 32 to 64 (≈ 54 to 108 µM) | > 128 | 8 to 16 (≈ 13.5 to 27 µM) | < 0.25 | 32 to 64 (≈ 54 to 108 µM) | > 128
C[C@H]1CN(CCN)C(=O)C(=O)N1C(=O)NC(C(=O)N[C@H]1Cc2cccc(C(=O)O)c2OB1O)c1c(F)cc(O)cc1F (stereo partly drawn) [Example 234, (3R)-3-(2-((S)-4-(2-aminoethyl)-6-methyl-2,3-dioxopiperazine-1-carboxamido)-2-(2,6-difluoro-4-hydroxyphenyl)acetamido)-2-hydroxy-3,4-dihydro-2H-benzo[e][1,2]oxaborinine-8-carboxylic acid] | < 30 | D (D represents a potency <10 μM) | 2 to 4 (≈ 3.39 to 6.79 µM) | 2 to 4 (≈ 3.39 to 6.79 µM) | 32 to 64 (≈ 54.3 to 109 µM) | 8 to 16 (≈ 13.6 to 27.2 µM) | 8 to 16 (≈ 13.6 to 27.2 µM) | > 128 | 32 to 64 (≈ 54.3 to 109 µM) | > 128 | 8 to 16 (≈ 13.6 to 27.2 µM) | 0.5 to 1 (≈ 0.848 to 1.7 µM) | 32 to 64 (≈ 54.3 to 109 µM) | 8 to 16 (≈ 13.6 to 27.2 µM)
